Measured values: patent publication US8377915B2, “Methods for treating or preventing disorders using ecdysteroid compositions” (Rutgers, The State University of New Jersey, priority 2006, dated 2013)

Assays:
Format in all cases: cell-based
mouse growth hormone [1] = experiment: Real Time RT-PCR of growth hormone expression in TM3 cells; settings: for effect on growth hormone expression (in words): TM3; for Growth Hormone Expression relative to Control: TM3, 1 μM; for change in growth hormone expression over time (in words): TM3, treated 20 minutes to 24 hours
Protocol: (§1) A mouse Leydig cell line, TM3, (ATCC) was seeded between 5 and 20 passages at a density of 10^5 cells/cm^2 onto 10 cm tissue culture plates. The cells were grown in F12/DME media supplemented with 5% horse serum, 2.5% fetal bovine serum, 100 U/ml penicillin, and 100 μg/ml streptomycin.
(§2) Cells were grown for 48 hours in 5% CO2 at 37° C. until they approached 80% confluency. Cells were washed with serum free DMEM and treated with either 1 μM […] (20HE), or methandrostenolone (synthetic anabolic steroid). Both compounds were dissolved in 70% ethanol and added to serum free media. Cells were incubated after treatment for 18 hours before RNA extraction.
(§3) Selected microarray results were verified by comparison with mRNA levels obtained by Real Time reverse transcription PCR (qRT-PCR). Selected gene-specific primer pairs were designed for the mouse growth hormone and glyceraldehyde-3-phosphate dehydrogenase genes using the Primer Express software, as shown in Table 3. Total RNA was isolated, DNase I-treated, and first-strand cDNA was synthesized using Stratascript reverse transcriptase with random primers. The PCR reactions were carried out using 500 ng of cDNA, 150 nM of each primer, and SYBR Green master mix in 25 μL reactions. Levels of quantitative reverse transcription product were measured using SYBR Green fluorescence collected during real-time PCR on a Stratagene MXP3000 sequence detection system. A control cDNA dilution series was created for each gene to establish a standard curve. Reverse transcriptase was excluded from control samples to identify potential genomic contamination. Each reaction was subjected to melting point analysis to confirm single amplified products. The data generated from each PCR were analyzed using MXP 3000 software.
(§4) Quantitative real time PCR was used to verify the microarray results for growth hormone. RNA samples from each treatment were reverse-transcribed into cDNA and amplified using real time PCR. Values for growth hormone were normalized to values obtained for the housekeeping gene, glyceraldehyde-3-phosphate dehydrogenase, and the ratios of the two treatments were calculated. In both the C2C12 and TM3 cell lines differential expression was qualitatively confirmed.
(§5) Using the ΔΔCt method, relative expression was calculated.
To further investigate the effects of 20-HE, the TM3 leydig cell line was treated for varying intervals, from 20 minutes to 24 hours, with either 20-HE or methandrostenolone. Growth hormone expression was than analyzed using real time PCR as mentioned earlier.

mouse growth hormone [2] = experiment: Real Time RT-PCR of growth hormone expression in C2C12 cells; settings: for effect on growth hormone expression (in words): C2C12; for Growth Hormone Expression relative to Control: C2C12, 1 μM, Real Time RT-PCR, normalized to GAPDH
Protocol: (§6) A mouse skeletal muscle cell line, C2C12, (ATCC) was seeded between 4 and 20 passages at a density of 10^5 cells/cm^2 onto 10 cm tissue culture plates. The cells were grown in DMEM supplemented with 10% Fetal Bovine Serum, 10 mM HEPES, 6 mM Glutamine, 1 mM pyruvate, 100 U/ml penicillin, and 100 ug/ml streptomycin.
as §2, §3, §4, §5

[3] = tested on: TM3 mouse Leydig cell line; experiment: cDNA microarray comparison of transcription, 20HE vs methandrostenolone, TM3 cells; settings: 18 hours
Protocol: (§7) A transcriptome approach utilizing cDNA microarray was implemented to observe the unique effects of ecdysteroids. Microarray analyses was developed and implemented to discern the transcriptional differences between ecdysteroids and anabolic steroids.
as §1, §2
(§8) RNA was extracted and purified from C2C12 myoblasts and TM3 Leydig tumor line cells using an RNeasy kit according to the manufacturer's instructions (Qiagen). RNA concentration and purity were assessed using a spectrophotometer. All RNA samples used had 260/280 ratios greater than 1.9.
(§9) A collection of 21,900 oligonucleotides was purchased from Compugen, Inc. Microarrays were printed on poly-L-lysine-coated glass slides using an OmniGrid microarrayer (GeneMachines, San Carlos, Calif.) and quill-type printing pins (Telichem, Sunnyvale, Calif.) following standard procedures. Fluorescent probes were prepared from 5 μg of total cellular RNA using the Genisphere 3DNA dendrimer system (Genisphere, Inc., Montvale, N.J.). Two separate microarrays, one for each cell line, were run. The ecdysone treated RNA sample was labeled with Cy3 and the methandrostenelone treated RNA sample was labeled with Cy5 in a parallel reaction, mixed, and hybridized to the chips. Automated microarray hybridization and washing were performed using a Ventana Discovery System. The sequence-tagged target was hybridized for 12 hours at 58° C., and microarrays were washed twice in […] for 10 minutes at 55° C. and once in […] for 2 minutes at 42° C. Florescent dendrimer was then applied and incubated at 55° C. for 2 hours. The microarrays were then washed with […] and spin-dried, followed by scanning on an Axon GenePix 4000B. Image files were processed using Axon GenePix 4.0 software, resulting in text files containing median fluorescence intensities as well as median local backgrounds. Normalized data were imported along with spot flag information into GeneSpring where the ratios were calculated.

[4] = tested on: C2C12 mouse skeletal muscle cell line; experiment: cDNA microarray comparison of transcription, 20HE vs methandrostenolone, C2C12 cells; settings: 18 hours
Protocol: as §7, §6, §2, §8, §9

[5] = Real Time RT-PCR, normalized to GAPDH

Structure (SMILES): CC(C)(O)CC[C@@H](O)[C@](C)(O)[C@H]1CC[C@@]2(O)C3=CC(=O)[C@@H]4C[C@@H](O)[C@@H](O)C[C@]4(C)[C@H]3CC[C@]12C [20-Hydroxyecdysone, 20-hydroxyecdysone]
- effect on growth hormone expression (in words) (mouse growth hormone [1]): increased expression of GH
- Growth Hormone Expression relative to Control (mouse growth hormone [1]; [5]): 7.1 ± 1.2
- Growth Hormone Expression relative to Control (mouse growth hormone [1]; incubation time 20 m): 0.9
- Growth Hormone Expression relative to Control (mouse growth hormone [1]; incubation time 45 m): 3.5
- Growth Hormone Expression relative to Control (mouse growth hormone [1]; incubation time 1 hr): 7.3
- Growth Hormone Expression relative to Control (mouse growth hormone [1]; incubation time 2 hr): 6.9
- Growth Hormone Expression relative to Control (mouse growth hormone [1]; incubation time 4 hr): 7.2
- Growth Hormone Expression relative to Control (mouse growth hormone [1]; incubation time 24 hr): 7
- change in growth hormone expression over time (in words) (mouse growth hormone [1]): increased growth hormone expression over time, beginning after 45 minute and remaining increased after 24 hours
- effect on growth hormone expression (in words) (mouse growth hormone [2]): increased expression of GH
- Growth Hormone Expression relative to Control (mouse growth hormone [2]): 3.9 ± 0.9
- 20E/D Expr: Growth hormone ([3]; TM3, 1 μM, expression ratio 20HE to methandrostenolone, LL 14599): 7.006
- 20E/D Expr: Insulin II ([3]; TM3, 1 μM, expression ratio 20HE to methandrostenolone, LL 16334): 0.262
- 20E/D Expr: Nuclear receptor subfamily 4, group A, member 2 ([3]; TM3, 1 μM, expression ratio 20HE to methandrostenolone, LL 18227): 0.010
- 20E/D Expr: Chemokine (C-C motif) ligand 20 ([3]; TM3, 1 μM, expression ratio 20HE to methandrostenolone, LL 20297): 11.89
- 20E/D Expr: Signal transducer and activator of transcription 1 ([3]; TM3, 1 μM, expression ratio 20HE to methandrostenolone, LL 20846): 0.052
- 20E/D Expr: Steroid sulfatase ([3]; TM3, 1 μM, expression ratio 20HE to methandrostenolone, LL 20905): 4.611
- 20E/D Expr: Insulin receptor-related receptor ([3]; TM3, 1 μM, expression ratio 20HE to methandrostenolone, LL 23920): 0.022
- 20E/D Expr: Osteomodulin ([3]; TM3, 1 μM, expression ratio 20HE to methandrostenolone, LL 27047): 0.010
- 20E/D Expr: Ndufs3 ([3]; TM3, 1 μM, expression ratio 20HE to methandrostenolone, LL 68349): 4.741
- genes down-regulated more than 2 fold as compared to methandrostenolone ([3]; TM3, microarray, 1 μM): 341 genes
- genes up-regulated more than 2 fold as compared to methandrostenolone ([3]; TM3, microarray, 1 μM): 287 genes
- increase of growth hormone expression more than methandrostenolone ([3]; TM3, microarray, 1 μM): 7.0 times
- 20E/D Expr: Annexin A5 ([4]; C2C12, 1 μM, expression ratio 20HE to methandrostenolone, LL 11747): 11.90
- 20E/D Expr: Cholecystokinin ([4]; C2C12, 1 μM, expression ratio 20HE to methandrostenolone, LL 12424): 0.010
- 20E/D Expr: Fas death domain-associated protein ([4]; C2C12, 1 μM, expression ratio 20HE to methandrostenolone, LL 13163): 0.010
- 20E/D Expr: Fibroblast growth factor 11 ([4]; C2C12, 1 μM, expression ratio 20HE to methandrostenolone, LL 14166): 0.010
- 20E/D Expr: Growth hormone ([4]; C2C12, 1 μM, expression ratio 20HE to methandrostenolone, LL 14599): 3.163
- 20E/D Expr: Histocompatibility 2, D region locus 1 ([4]; C2C12, 1 μM, expression ratio 20HE to methandrostenolone, LL 14964): 6.771
- 20E/D Expr: Hexokinase 2 ([4]; C2C12, 1 μM, expression ratio 20HE to methandrostenolone, LL 15277): 0.010
- 20E/D Expr: mago-nashi homolog, proliferation-associated ([4]; C2C12, 1 μM, expression ratio 20HE to methandrostenolone, LL 17149): 3.708
- 20E/D Expr: Insulin receptor-related receptor ([4]; C2C12, 1 μM, expression ratio 20HE to methandrostenolone, LL 23920): 0.020
- genes down-regulated more than two fold as compared to methandrostenolone ([4]; C2C12, microarray, 1 μM): 479 genes
- genes up-regulated more than 2-fold as compared to methandrostenolone ([4]; C2C12, microarray, 1 μM): 278 genes
- increase of growth hormone expression more than methandrostenolone ([4]; C2C12, microarray, 1 μM): 3.2 times

Structure (SMILES): C[C@]12C=CC(=O)C=C1CC[C@@H]1[C@@H]2CC[C@@]2(C)[C@H]1CC[C@]2(C)O [Methandrostenolone, methandrostenolone, reference compound]
- effect on growth hormone expression (in words) (mouse growth hormone [1]): little or no effect
- Growth Hormone Expression relative to Control (mouse growth hormone [1]; [5]): 2.3 ± 1.4
- Growth Hormone Expression relative to Control (mouse growth hormone [1]; incubation time 20 m): 1.2
- Growth Hormone Expression relative to Control (mouse growth hormone [1]; incubation time 45 m): 1.9
- Growth Hormone Expression relative to Control (mouse growth hormone [1]; incubation time 1 hr): 2.5
- Growth Hormone Expression relative to Control (mouse growth hormone [1]; incubation time 2 hr): 1.7
- Growth Hormone Expression relative to Control (mouse growth hormone [1]; incubation time 4 hr): 2.1
- Growth Hormone Expression relative to Control (mouse growth hormone [1]; incubation time 24 hr): 2.3
- change in growth hormone expression over time (in words) (mouse growth hormone [1]): very little change
- effect on growth hormone expression (in words) (mouse growth hormone [2]): little or no effect
- Growth Hormone Expression relative to Control (mouse growth hormone [2]): 0.8 ± 0.5
